Test results published in paper PMC6009913, “N-aryl 2-aryloxyacetamides as a new class of fatty acid amide hydrolase (FAAH) inhibitors” (Journal of Enzyme Inhibition and Medicinal Chemistry, 2017).
In brackets after ≈: the same amount, converted by molar mass. Like-named read-outs stand apart in the source and are kept apart here.

Tests used:
[1] = target: T1, FAAH (Rattus norvegicus, UniProt P97612); assay: FAAH inhibition, hydrolysis of 0.5 µM [3H]AEA in rat brain homogenates; assay type: biochemical; settings: for Maximum inhibition: maximal attainable inhibition according to preferred curve fit, mean ± standard error; for effect of pre-incubation on inhibition curve (time dependence): 60 vs. 0 min of pre-incubation
T1 construct: using rat brain homogenates as enzyme source; from tissue; host or cells: rat brain homogenate
T1 sequence (P97612 1-579): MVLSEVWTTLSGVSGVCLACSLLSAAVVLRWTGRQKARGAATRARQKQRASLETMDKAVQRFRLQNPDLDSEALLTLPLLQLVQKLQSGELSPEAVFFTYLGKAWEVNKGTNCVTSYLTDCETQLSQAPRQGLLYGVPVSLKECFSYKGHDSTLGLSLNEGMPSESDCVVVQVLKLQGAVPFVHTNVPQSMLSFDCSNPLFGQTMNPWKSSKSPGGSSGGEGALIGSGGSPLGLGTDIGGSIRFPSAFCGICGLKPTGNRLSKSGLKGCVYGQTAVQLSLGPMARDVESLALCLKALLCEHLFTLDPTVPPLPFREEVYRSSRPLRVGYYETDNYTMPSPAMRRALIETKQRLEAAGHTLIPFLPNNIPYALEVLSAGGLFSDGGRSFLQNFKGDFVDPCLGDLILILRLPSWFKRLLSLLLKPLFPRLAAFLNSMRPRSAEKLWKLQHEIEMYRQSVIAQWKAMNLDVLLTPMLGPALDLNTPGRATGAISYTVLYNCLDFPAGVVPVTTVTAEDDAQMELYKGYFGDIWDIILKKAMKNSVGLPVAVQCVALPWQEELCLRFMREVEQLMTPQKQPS

[2] = tested on: FAAH; parameters: method as in PMID 12461523; settings: previously reported data; cited from earlier work
[3] = thermodynamic aqueous solubility in phosphate-buffered saline; assay type: physicochemical; settings: aqueous buffer, thermodynamic from solid; phosphate-buffered saline 10 mM, pH 7.48, 37 °C
[4] = tested on: FAAH; parameters: method as in PMID 21502526; settings: reported; cited from earlier work
[5] = 60-min pre-incubation with enzyme

Row | Maximum inhibition ([1]; no pre-incubation) | SMILES | also measured
1 | 19 ± 10% | O=C(COc1ccc(C2CCCCC2)cc1)Nc1ccc(-c2nc3ncccc3o2)cc1 [4j, 2-(4-Cyclohexylphenoxy)-N-(4-(oxazolo[4,5-b]pyridin-2-yl)phenyl)acetamide] | 
2 |  | NC(=O)c1cccc(-c2cccc(OC(=O)NC3CCCCC3)c2)c1 [URB597] | IC50 [2]: 0.0046 ± 0.0016 µM
3 | 70 ± 2% | O=C(COc1ccc(-c2ccccc2)cc1)Nc1ccccc1-c1nc2ncccc2[nH]1 [4l, N-(2-(1H-imidazo[4,5-b]pyridin-2-yl)phenyl)-2-([1,1'-biphenyl]-4-yloxy)acetamide] | effect of pre-incubation on inhibition curve (time dependence) [1]: reduced maximal inhibition
4 | 75 ± 4% | O=C(COc1ccc(-c2ccccc2)cc1)Nc1ccc(-c2nc3ncccc3o2)cc1 [4i, 2-([1,1′-Biphenyl]-4-yloxy)-N-(4-(oxazolo[4,5-b]pyridin-2-yl)phenyl)acetamide] | solubility thermodynamic [3]: 18 µM (≈ 7.59 µg/mL); IC50 [1, 5]: 0.28 µM; maximum observed inhibition [1, 5]: 39 ± 2%
5 | 100% | CCC/C=C/COCC(=O)Nc1cccc(-c2nc3ncccc3[nH]2)c1 [4q, (E)-N-(3-(1H-imidazo[4,5-b]pyridin-2-yl)phenyl)-2-(hex-2-en-1-yloxy)acetamide] | 
6 | 100% | CCC/C=C/COCC(=O)Nc1ccc(-c2nc3ncccc3[nH]2)cc1 [4t, (E)-N-(4-(1H-imidazo[4,5-b]pyridin-2-yl)phenyl)-2-(hex-2-en-1-yloxy)acetamide] | IC50 [1, 5]: 43 µM; effect of pre-incubation on inhibition curve (time dependence) [1]: A small degree of time-dependent inhibition; IC50 ([1]; rat brain homogenates, 0.5 µM [3H]AEA, no pre-incubation, pooled from three independent experiments, 5–7 concentrations): 64 µM
7 | 62 ± 4% | O=C(COc1ccc(C2CCCCC2)cc1)Nc1ccc(-c2nc3ncccc3[nH]2)cc1 [4s, N-(4-(1H-imidazo[4,5-b]pyridin-2-yl)phenyl)-2-(4-cyclohexylphenoxy)acetamide] | solubility thermodynamic [3]: 3 µM (≈ 1.28 µg/mL); effect of pre-incubation on inhibition curve (time dependence) [1]: essentially identical inhibition curves
8 | 100% | O=C(COc1ccc(C2CCCCC2)cc1)Nc1cccc(-c2nc3ncccc3[nH]2)c1 [4p, N-(3-(1H-imidazo[4,5-b]pyridin-2-yl)phenyl)-2-(4-cyclohexylphenoxy)acetamide] | 
9 | 100% | O=C(COc1ccccc1)Nc1cccc(-c2nc3ncccc3o2)c1 [4d, N-(3-(oxazolo[4,5-b]pyridin-2-yl)phenyl)-2-phenoxyacetamide] | 
10 | 100% | O=C(COc1ccc(C2CCCCC2)cc1)Nc1cccc(-c2nc3ncccc3o2)c1 [4g, 2-(4-Cyclohexylphenoxy)-N-(3-(oxazolo[4,5-b]pyridin-2-yl)phenyl)acetamide] | 
11 |  | O=C(COc1ccc(-c2ccccc2)cc1)Nc1cccc(-c2nc3ncccc3o2)c1 [4f, 2-([1,1′-Biphenyl]-4-yloxy)-N-(3-(oxazolo[4,5-b]pyridin-2-yl)phenyl)acetamide] | solubility thermodynamic [3]: 3 to 20 µM (≈ 1.26 to 8.43 µg/mL)
12 | 80 ± 2% | O=C(COc1ccc(-c2ccccc2)cc1)Nc1ccc(-c2nc3ncccc3[nH]2)cc1 [4r, N-(4-(1H-imidazo[4,5-b]pyridin-2-yl)phenyl)-2-([1,1'-biphenyl]-4-yloxy)acetamide] | solubility thermodynamic [3]: 20 µM (≈ 8.41 µg/mL); effect of pre-incubation on inhibition curve (time dependence) [1]: reduced maximal inhibition
13 | 71 ± 9% | O=C(COc1ccc(-c2ccccc2)cc1)Nc1cccc(-c2nc3ncccc3[nH]2)c1 [4o, N-(3-(1H-imidazo[4,5-b]pyridin-2-yl)phenyl)-2-([1,1'-biphenyl]-4-yloxy)acetamide] | 
14 | −1 ± 3% | O=C(COc1ccc(C2CCCCC2)cc1)Nc1ccccc1-c1nc2ncccc2o1 [4b, 2-(4-Cyclohexylphenoxy)-N-(2-(oxazolo[4,5-b]pyridin-2-yl)phenyl)acetamide] | 
15 | 100% | CC(C)c1ccc(OCC(=O)Nc2cccc(-c3nc4ncccc4o3)c2)cc1 [4e, 2-(4-Isopropylphenoxy)-N-(3-(oxazolo[4,5-b]pyridin-2-yl)phenyl)acetamide] | 
16 | 46 ± 9% | CCC/C=C/COCC(=O)Nc1ccc(-c2nc3ncccc3o2)cc1 [4k, (E)-2-(hex-2-en-1-yloxy)-N-(4-(oxazolo[4,5-b]pyridin-2-yl)phenyl)acetamide] | 
17 | 100% | CCC/C=C/COCC(=O)Nc1ccccc1-c1nc2ncccc2[nH]1 [4n, (E)-N-(2–(1H-imidazo[4,5-b]pyridin-2-yl)phenyl)-2-(hex-2-en-1-yloxy)acetamide] | 
18 | 100% | CCC/C=C/COCC(=O)Nc1cccc(-c2nc3ncccc3o2)c1 [4h, (E)-2-(hex-2-en-1-yloxy)-N-(3-(oxazolo[4,5-b]pyridin-2-yl)phenyl)acetamide] | 
19 | 82 ± 3% | O=C(COc1ccc(C2CCCCC2)cc1)Nc1ccccc1-c1nc2ncccc2[nH]1 [4m, N-(2-(1H-imidazo[4,5-b]pyridin-2-yl)phenyl)-2-(4-cyclohexylphenoxy)acetamide] | solubility thermodynamic [3]: 3 to 20 µM (≈ 1.28 to 8.53 µg/mL); effect of pre-incubation on inhibition curve (time dependence) [1]: reduced maximal inhibition
20 | 7 ± 3% | CCC/C=C/COCC(=O)Nc1ccccc1-c1nc2ncccc2o1 [4c, (E)-2-(hex-2-en-1-yloxy)-N-(2-(oxazolo[4,5-b]pyridin-2-yl)phenyl)acetamide] | 
21 | 3 ± 5% | O=C(COc1ccc(-c2ccccc2)cc1)Nc1ccccc1-c1nc2ncccc2o1 [4a, 2-([1,1′-Biphenyl]-4-yloxy)-N-(2-(oxazolo[4,5-b]pyridin-2-yl)phenyl)acetamide] | 
22 |  | CCn1c(=O)n([C@H]2CCCN(c3nccc(-c4cc5ccccc5o4)n3)C2)c2ccccc21 [crystal ligand, 1-{(3S)-1-[4–(1-benzofuran-2-yl)pyrimidin-2-yl]piperidin-3-yl}-3-ethyl-1,3-dihydro-2H-benzimidazol-2-one] | IC50 [4]: 0.1 µM
